{"source": "patent EP1197217A1", "about": "“Use of sodium nitroprussiate in obstetrics and gynaecology” (Ibsa Institut Biochimique S.A., priority 2000, dated 2002)", "origin": "cited, not measured here", "system": "cervix", "conditions": "in vivo", "note": "Values joined by “and” are separate entries in the source; they are usually repeats but may differ in a detail not shown here. Identical values can stand only once."}
{"smiles": "O=[N+]([O-])O[C@@H]1CO[C@H]2[C@@H]1OC[C@@H]2O", "note": "[isosorbide mononitrate]", "values": [{"measurement": "cumulative median force necessary to dilate the cervix to 8 mm", "value": "40 newtons and 36 newtons"}]}
